Read-outs that look alike come from different tables or passages of the source.
Assays:
DAOY cells = assay: Combination therapy viability assay; settings: Homo sapiens, 72 h
MON cells = assay: Combination therapy viability assay; format: cell-based; settings: Homo sapiens, 72 h, read-out: IC50 of compound 2
BT-16 cells = assay: Combination therapy viability assay; format: cell-based; settings: Homo sapiens, BT-16, 72 h, read-out: IC50 of compound 2
[1] = test system: rhabdoid mouse xenograft models; settings: in vivo; cited from earlier work
[2] = children, single agent; cited from earlier work
[3] = test system: rhabdoid tumor cell lines; settings: inhibition of ERBB2; cited from earlier work
[4] = read-out: IC50 of compound 2, DAOY, combined with CFI-400945 (5 nM)
[5] = read-out: IC50 of compound 2, DAOY, combined with CFI-400945 (10 nM)
[6] = combined with CFI-400945 (5 nM)
[7] = combined with CFI-400945 (10 nM)

Structure (SMILES) | IC50 (DAOY cells; [4]) | IC50 (DAOY cells; [5]) | IC50 (MON cells; [6]) | IC50 (MON cells; [7]) | IC50 (BT-16 cells; [6]) | IC50 (BT-16 cells; [7]) | response rates [1] | clinical activity [2] | cell migration and apoptosis [3]
COc1cccc2c1C(=O)c1c(O)c3c(c(O)c1C2=O)C[C@@](O)(C(=O)CO)C[C@@H]3O[C@H]1C[C@H](N)[C@H](O)[C@H](C)O1 [Doxorubicin, doxorubicin] | 168 nM | 199 nM | 74 nM | 57 nM | 566 nM | 576 nM |  |  | 
COc1cc([C@@H]2c3cc4c(cc3[C@@H](O[C@@H]3O[C@@H]5CO[C@@H](C)O[C@H]5[C@H](O)[C@H]3O)[C@H]3COC(=O)[C@H]23)OCO4)cc(OC)c1O [Etoposide, etoposide] | 494 nM | 800 nM | 292 nM | 266 nM | 593 nM | 6 nM |  |  | 
COc1cc(Nc2ncc3c(n2)-c2ccc(Cl)cc2C(c2c(F)cccc2OC)=NC3)ccc1C(=O)O [alisertib] |  |  |  |  |  |  | high response rates | active as a single agent | 
CS(=O)(=O)CCNCc1ccc(-c2ccc3ncnc(Nc4ccc(OCc5cccc(F)c5)c(Cl)c4)c3c2)o1 [lapatinib] |  |  |  |  |  |  |  |  | significant impairment of cell migration and initiation of apoptosis

— US11197863B2, “Inhibitors of polo-like kinase 4 (PLK4) for treating pediatric embryonal tumors” (ANN AND ROBERT H. LURIE CHILDREN'S HOSPITAL OF CHICAGO, priority 2017, dated 2021)
